This is an account of results in PubChem BioAssay (NCI).

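All cell lines were grown in 96-well plates and treated with compound for 48 hours. The concentration for 50% growth inhibition is given as GI50. The concentration for full growth arrest is given as TGI.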 Bounds are passed on as bounds.

Some test systems named below: TK-10 renal; EKVX NSCLC; NCI-H23 lung; KM12 colon; SF-539 CNS; MALME-3M melanoma; DU-145 prostate; K-562 leukemia; IGROV1 ovarian; SK-MEL-5 melanoma.
Assay in all cases: DTP human tumour cell line panel, 48 h

As to `Cc1cc(OCc2nnc3n2N=C(c2ccc(Cl)cc2Cl)CS3)ccc1Cl`, the GI50 was 32 µM in the experiment on TK-10 renal; 6.89 µM with EKVX NSCLC; 61 µM with NCI-H23 lung; 53.3 µM in the experiment with KM12 colon; greater than 100 µM in the experiment on SF-539 CNS; 68.9 µM in the experiment with MALME-3M melanoma. Also, the GI50 in the experiment on DU-145 prostate was 69.7 µM; in the experiment with K-562 leukemia it was 54.7 µM; with IGROV1 ovarian, 52.3 µM; in the experiment on SK-MEL-5 melanoma, 25.6 µM. The TGI with TK-10 renal was greater than 100 µM; in the experiment with EKVX NSCLC, 81.2 µM; in the experiment on NCI-H23 lung, greater than 100 µM; with KM12 colon, greater than 100 µM; in the experiment with SF-539 CNS, greater than 100 µM; with MALME-3M melanoma, greater than 100 µM. In addition, the TGI in the experiment on DU-145 prostate, in the experiment with K-562 leukemia, with IGROV1 ovarian and with SK-MEL-5 melanoma was greater than 100 µM each time.
As for `COc1cc2c3c(n(CCCN=[N+]=[N-])c(=O)c2cc1OC)-c1ccc(N(C)C)cc1C3=O`, the GI50 in the experiment with TK-10 renal, in the experiment on EKVX NSCLC, with NCI-H23 lung, in the experiment with KM12 colon, with SF-539 CNS and in the experiment with MALME-3M melanoma was greater than 100 µM each time. Also, the GI50 with DU-145 prostate is greater than 100 µM; in the experiment with K-562 leukemia it was greater than 100 µM; in the experiment on IGROV1 ovarian it was greater than 100 µM; in the experiment on SK-MEL-5 melanoma, 87.1 µM. Besides, the TGI in the experiment on TK-10 renal, with EKVX NSCLC, with NCI-H23 lung, in the experiment with KM12 colon, with SF-539 CNS and with MALME-3M melanoma was greater than 100 µM throughout. Further, the TGI in the experiment with DU-145 prostate, in the experiment on K-562 leukemia, in the experiment on IGROV1 ovarian and in the experiment with SK-MEL-5 melanoma was greater than 100 µM in each case.
`C=C1c2c(Cl)ccc(O)c2C(O)=C2C(=O)[C@]3(O)C(O)=C(C(N)=O)C(=O)[C@@H](N(C)C)[C@@H]3[C@@H](O)[C@H]12`: the GI50 was 0.656 µM with TK-10 renal; 1.51 µM in the experiment on EKVX NSCLC; 1.08 µM in the experiment on NCI-H23 lung; 1.49 µM in the experiment with KM12 colon; 1.32 µM with SF-539 CNS; 1.15 µM with MALME-3M melanoma. In addition, the GI50 in the experiment on DU-145 prostate was 1.62 µM; in the experiment with K-562 leukemia, 1.66 µM; with IGROV1 ovarian, 1.03 µM; in the experiment on SK-MEL-5 melanoma, 0.801 µM. Also, the TGI in the experiment on TK-10 renal was 3.41 µM; in the experiment on EKVX NSCLC it was 13 µM; in the experiment with NCI-H23 lung, 4.14 µM; with KM12 colon, 6.17 µM; with SF-539 CNS it was 4.61 µM; with MALME-3M melanoma it was 3.45 µM. The TGI was 9.15 µM with DU-145 prostate, greater than 50 µM in the experiment on K-562 leukemia, 5.22 µM in the experiment on IGROV1 ovarian and 1.57 µM in the experiment on SK-MEL-5 melanoma.

The GI50 is the concentration that inhibits growth by half. The TGI is the concentration giving total growth inhibition. Lower therefore signals greater sensitivity of the cells.
